According to US9145425B2, “Cephem compound having catechol group” (SHIONOGI & CO., LTD., priority 2010, dated 2015):
Values after ≈ are worked out from the molar mass of the structure shown. Counter-ions that a name gives are not always drawn. Like-named read-outs stand apart in the source and are kept apart here.

Columns and labels:
[1] = system: P. aeruginosa SR27001 (multi-resistant Pseudomonas aeruginosa; IMP-1 producing strain); assay: Antimicrobial activity in vitro (MIC) of the in vivo test compounds; assay type: cell-based; conditions: addition of Tf
Method: (§1) Measurement of Minimum Inhibitory Concentration (MIC, μg/ml) was conducted according to the standard method of the Japan Society for Chemotherapy and the amount of bacteria for inoculation was 1000 cfu/spot, and sensitive disc medium was used as the test medium, and conducted using agar plate incubation.
The antimicrobial activity in vitro (MIC) of the test compounds was determined according to the method of Experimental Example 1.

[2] = system: P. aeruginosa SR27001 (multi-resistant Pseudomonas aeruginosa; IMP-1 producing strain); assay: Antimicrobial activity in vivo, mouse intraperitoneal infection, ED50 from survival rate; conditions: Mice (ICR type, male, 5 weeks), intravenous administration in twice from 1.5 h after infection, survival rate after 7 days
Method: The antimicrobial activity in vivo of the present compound (I) was determined.
Mice (ICR type, male, 5 weeks) were inoculated intraperitoneally with P. aeruginosa SR27001 (multi-resistant Pseudomonas aeruginosa; IMP-1 producing strain) to raise infection. One and half hours after, mice were treated with intravenious administration in twice, and then the ED50 value was calculated based on the survival rate after 7 days.

[3] = system: Stenotrophomonas maltophilia SR21970; assay: Minimum Inhibitory Concentration (MIC), agar plate incubation, CLSI method; assay type: cell-based
Method: (§2) The antimicrobial activity in vitro of the present compound (I) was determined.
Measurement of Minimum Inhibitory Concentration (MIC, μg/ml) was conducted according to the CLSI (Clinical and Laboratory Standards Institute) and the amount of bacteria for inoculation was 10000 cfu/spot, and Mueller-Hinton agar medium was used as the test medium, and conducted using agar plate incubation.
(§3) In the tables, the unit of the values of inhibitory activity is μg/ml.

[4] = system: Pseudomonas aeruginosa SR24; assay: Minimum Inhibitory Concentration (MIC), agar plate incubation, Japan Society for Chemotherapy standard method; assay type: cell-based
Method: as §2, §1, §3

[5] = system: Klebsiella pneumoniae ATCC 700603; assay: as above; assay type: cell-based
Method: as §2, §1, §3

[6] = system: Pseudomonas aeruginosa SR27060; assay: as above; assay type: cell-based
Method: as §2, §1, §3

[7] = system: Acinetobacter baumannii SR24396; assay: as above; assay type: cell-based
Method: as §2, §1, §3

[8] = Pseudomonas aeruginosa, read-out: MIC
[9] = Pseudomonas aeruginosa, read-out: ED50
[10] = Stenotrophomonas maltophilia SR21970, L-1, MBL producer strain (carbapenem resistant strain), 10000 cfu/spot, Mueller-Hinton agar medium
[11] = Pseudomonas aeruginosa SR24, no enzyme, ceftazidime sensitive strain, 1000 cfu/spot, sensitive disc medium
[12] = Klebsiella pneumoniae ATCC 700603, SHV-18, ESBL producer strain, 1000 cfu/spot, sensitive disc medium
[13] = Pseudomonas aeruginosa SR27060, IMP-1, MBL producer strain (carbapenem resistant strain), 1000 cfu/spot, sensitive disc medium
[14] = Acinetobacter baumannii SR24396, no enzyme, 1000 cfu/spot, sensitive disc medium
[15] = Stenotrophomonas maltophilia, SR21970, read-out: Minimum Inhibitory Concentration (MIC)
[16] = Pseudomonas aeruginosa, SR24, read-out: Minimum Inhibitory Concentration (MIC)
[17] = Klebsiella pneumoniae, ATCC700603, read-out: Minimum Inhibitory Concentration (MIC)
[18] = Pseudomonas aeruginosa, SR27060, read-out: Minimum Inhibitory Concentration (MIC)
[19] = Acinetobacter baumannii, SR24396, read-out: Minimum Inhibitory Concentration (MIC)
[20] = Stenotrophomonas maltophilia SR21970, L-1, MBL producer strain (carbapenem resistant strain), 10000 cfu/spot, Mueller-Hinton agar medium, read-out: Minimum Inhibitory Concentration (MIC)
[21] = Pseudomonas aeruginosa SR24, no enzyme, ceftazidime sensitive strain, 1000 cfu/spot, sensitive disc medium, read-out: Minimum Inhibitory Concentration (MIC)
[22] = ATCC700603, Klebsiella pneumoniae ATCC 700603, SHV-18, ESBL producer strain, 1000 cfu/spot, sensitive disc medium, read-out: Minimum Inhibitory Concentration (MIC)
[23] = Pseudomonas aeruginosa SR27060, IMP-1, MBL producer strain (carbapenem resistant strain), 1000 cfu/spot, sensitive disc medium, read-out: Minimum Inhibitory Concentration (MIC)
[24] = Acinetobacter baumannii SR24396, no enzyme, 1000 cfu/spot, sensitive disc medium, read-out: Minimum Inhibitory Concentration (MIC)

For `CO/N=C(\C(=O)N[C@@H]1C(=O)N2C(C(=O)[O-])=C(C[N+]3(C)CCCC3)CS[C@H]12)c1csc(N)n1` [CFPM, cefepime hydrochloride hydrate, reference compound], the MIC [1, 8] was over 64 µg/mL and the ED50 [2, 9] was over 100 mg/kg.
Compound `C[C@H](O/N=C(\C(=O)N[C@@H]1C(=O)N2C(C(=O)[O-])=C(C[N+]34CCC[C@H]3CN(C(=O)c3ccc(O)c(O)c3Cl)CC4)CS[C@H]12)c1csc(N)n1)C(=O)[O-].[Na+]` (stereo partly shown) [Compound I-13] has an MIC [1, 8] of 1 µg/mL and an ED50 [2, 9] of 4.22 mg/kg.
`CC(C)(ON=C(C(=O)NC1C(=O)N2C(C(=O)[O-])=C(C[N+](C)(C)C3CCN(C(=O)c4ccc(O)c(O)c4Cl)C3)CSC12)c1csc(N)n1)C(=O)[O-].[Na+]` (stereo not shown) [Compound I-20] was tested, and the MIC [1] was 2 µg/mL and the ED50 [2] was 5.48 mg/kg.
`CCC(ON=C(C(=O)NC1C(=O)N2C(C(=O)[O-])=C(C[N+]34CCC(CC3)N(C(=O)c3ccc(O)c(O)c3Cl)CC4)CSC12)c1csc(N)n1)C(=O)[O-].[Na+]` (stereo not shown) [Compound I-25] was tested, and the “Minimum Inhibitory Concentration (MIC)” value [3, 10] was 1 µg/mL, the MIC [1] was 1 µg/mL and the “Minimum Inhibitory Concentration (MIC)” value [4, 11] was 0.125 µg/mL. The “Minimum Inhibitory Concentration (MIC)” value [5, 12] was 0.25 µg/mL, the “Minimum Inhibitory Concentration (MIC)” value [6, 13] was 0.5 µg/mL and the “Minimum Inhibitory Concentration (MIC)” value [7, 14] was 0.125 µg/mL. It also gave an ED50 [2] of 3.34 mg/kg.
`CC(C)(O/N=C(\C(=O)N[C@@H]1C(=O)N2C(C(=O)O)=C(C[N+]3(C)[C@@H]4CC[C@H]3C[C@@H](NC(=O)c3cc(O)c(O)c(Cl)c3)C4)CS[C@H]12)c1csc(N)n1)C(=O)[O-]` (stereo partly shown) [II-50] was tested, and the MIC [3, 15] was 0.5 µg/mL (≈ 0.642 µM), the MIC [4, 16] was 0.125 µg/mL (≈ 0.161 µM) and the MIC [5, 17] was 0.25 µg/mL (≈ 0.321 µM). It also gave an MIC [6, 18] of 0.5 µg/mL (≈ 0.642 µM) and an MIC [7, 19] of 0.25 µg/mL (≈ 0.321 µM).
For `C[N+]1(CC2=C(C(=O)[O-])N3C(=O)C(NC(=O)C(=NOC(CC(=O)O)C(=O)[O-])c4csc(N)n4)C3SC2)C2CCC1CC(NC(=O)c1cc(O)c(O)c(Cl)c1)C2.[Na+]` (stereo not shown) [II-51], the “Minimum Inhibitory Concentration (MIC)” value [3, 10] was 0.25 µg/mL, the “Minimum Inhibitory Concentration (MIC)” value [4, 11] was 0.125 µg/mL and the “Minimum Inhibitory Concentration (MIC)” value [5, 12] was 0.25 µg/mL. The “Minimum Inhibitory Concentration (MIC)” value [6, 13] was 0.25 µg/mL and the “Minimum Inhibitory Concentration (MIC)” value [7, 14] was 0.125 µg/mL.
With `Nc1nc(/C(=N/O[C@@H](CC(=O)[O-])C(=O)[O-])C(=O)N[C@@H]2C(=O)N3C(C(=O)[O-])=C(C[N+]45CCC[C@H]4CN(C(=O)c4cc(O)c(O)c(Cl)c4)CC5)CS[C@H]23)cs1.[Na+].[Na+]` (stereo partly shown) [II-57] the “Minimum Inhibitory Concentration (MIC)” value [3, 10] was 0.5 µg/mL, the “Minimum Inhibitory Concentration (MIC)” value [4, 11] was 0.063 µg/mL and the “Minimum Inhibitory Concentration (MIC)” value [5, 12] was 0.25 µg/mL. The “Minimum Inhibitory Concentration (MIC)” value [6, 13] was 0.5 µg/mL and the “Minimum Inhibitory Concentration (MIC)” value [7, 14] was 0.063 µg/mL.
With `Nc1nc(C(=NOC(CC(=O)[O-])C(=O)[O-])C(=O)NC2C(=O)N3C(C(=O)[O-])=C(C[N+]45CCC(CNC(=O)c6ccc(O)c(O)c6Cl)(CC4)CC5)CSC23)cs1.[Na+].[Na+]` (stereo not shown) [II-58] the “Minimum Inhibitory Concentration (MIC)” value [3, 10] was 0.5 µg/mL, the “Minimum Inhibitory Concentration (MIC)” value [4, 11] was 0.25 µg/mL and the “Minimum Inhibitory Concentration (MIC)” value [5, 12] was 0.5 µg/mL. The “Minimum Inhibitory Concentration (MIC)” value [6, 13] was 0.5 µg/mL and the “Minimum Inhibitory Concentration (MIC)” value [7, 14] was 0.125 µg/mL.
Compound `CC[C@H](O/N=C(\C(=O)N[C@@H]1C(=O)N2C(C(=O)O)=C(C[N+]34CCC(CNC(=O)c5ccc(O)c(O)c5Cl)(CC3)CC4)CS[C@H]12)c1csc(N)n1)C(=O)[O-]` [II-59] has an MIC [3, 20] of 1 µg/mL (≈ 1.28 µM), an MIC [4, 21] of 0.25 µg/mL (≈ 0.321 µM) and an MIC [5, 22] of 0.5 µg/mL (≈ 0.642 µM). For the same compound, the MIC [6, 23] was 0.5 µg/mL (≈ 0.642 µM) and the MIC [7, 24] was 0.125 µg/mL (≈ 0.161 µM).
For `CC(C)(O/N=C(\C(=O)N[C@@H]1C(=O)N2C(C(=O)O)=C(C[N+]3(C)[C@@H]4CC[C@H]3C[C@@H](NC(=O)c3ccc(O)c(O)c3Cl)C4)CS[C@H]12)c1nsc(N)n1)C(=O)[O-]` (stereo partly shown) [II-63], the MIC [3, 20] was 0.5 µg/mL (≈ 0.642 µM), the MIC [4, 21] was 0.063 µg/mL (≈ 0.0808 µM) and the MIC [5, 22] was 1 µg/mL (≈ 1.28 µM). For the same compound, the MIC [6, 23] was 0.5 µg/mL (≈ 0.642 µM) and the MIC [7, 24] was 0.125 µg/mL (≈ 0.16 µM).
`CC(C)[C@H](O/N=C(\C(=O)N[C@@H]1C(=O)N2C(C(=O)O)=C(C[N@+]3(C)[C@@H]4CC[C@H]3C[C@@H](NC(=O)c3ccc(O)c(O)c3Cl)C4)CS[C@H]12)c1csc(N)n1)C(=O)[O-]` [III-3] gave an MIC [3, 20] of 0.5 µg/mL (≈ 0.631 µM), an MIC [4, 21] of 0.125 µg/mL (≈ 0.158 µM) and an MIC [5, 22] of 0.25 µg/mL (≈ 0.316 µM). The MIC [6, 23] was 0.5 µg/mL (≈ 0.631 µM) and the MIC [7, 24] was 0.125 µg/mL (≈ 0.158 µM).
`CC(C)(O/N=C(\C(=O)N[C@@H]1C(=O)N2C(C(=O)O)=C(C[N+]34CCCC3(CNC(=O)c3ccc(O)c(O)c3Cl)CCC4)CS[C@H]12)c1csc(N)n1)C(=O)[O-]` (stereo partly shown) [III-5] was tested, and the MIC [3, 15] was 0.25 µg/mL (≈ 0.321 µM), the MIC [4, 16] was 0.125 µg/mL (≈ 0.161 µM) and the MIC [5, 17] was 0.125 µg/mL (≈ 0.161 µM). For the same compound, the MIC [6, 18] was 0.5 µg/mL (≈ 0.642 µM) and the MIC [7, 19] was 0.25 µg/mL (≈ 0.321 µM).
`C[N+]1(CC2=C(C(=O)[O-])N3C(=O)C(NC(=O)C(=NOC(CC(=O)O)C(=O)[O-])c4csc(N)n4)C3SC2)C2CCC1CC(NC(=O)c1ccc(O)c(O)c1C(F)(F)F)C2.[Na+]` (stereo not shown) [III-14] was tested, and the “Minimum Inhibitory Concentration (MIC)” value [3, 10] was 0.25 µg/mL, the “Minimum Inhibitory Concentration (MIC)” value [4, 11] was 0.25 µg/mL and the “Minimum Inhibitory Concentration (MIC)” value [5, 12] was 0.5 µg/mL. The “Minimum Inhibitory Concentration (MIC)” value [6, 13] was 0.5 µg/mL and the “Minimum Inhibitory Concentration (MIC)” value [7, 14] was 0.125 µg/mL.
